Like-named read-outs stand apart in the source and are kept apart here.

What is called IC50 is the midpoint of a concentration-inhibition curve.

The target of one assay is T1, His-tagged NSD2 PWWP1 (Homo sapiens, UniProt O96028).
T1 sequence (O96028 211-350): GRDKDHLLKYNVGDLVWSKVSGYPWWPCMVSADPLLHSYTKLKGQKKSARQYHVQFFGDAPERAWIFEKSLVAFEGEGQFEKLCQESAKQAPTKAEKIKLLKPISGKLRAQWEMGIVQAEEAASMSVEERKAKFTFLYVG
The assay is described as follows: TR-FRET cooperativity (competition) assay: displacement of biotinylated NSD2 ligand UNC7096. In kind it is binding. From the text:
Because of the direct interactions observed between FBXO22 and NSD2, we hypothesized that some degree of cooperative binding could facilitate complex stabilization. Therefore, we developed a TR-FRET assay to monitor the interaction between his-tagged NSD2 and a biotinylated NSD2 ligand, UNC7096, that is missing the modality for FBXO22-recruitment (Supplementary Fig. 3D)[20]. Given the positive FRET signal observed when both NSD2 PWWP1 and UNC7096 are present, we used this setup to evaluate the displacement of UNC7096 by UNC10088 in the presence or absence of the FBXO22 FIST domain (Supplementary Fig. 3D). […] Importantly, this FBXO22-dependent enhancement of NSD2 antagonism by UNC10088 was absent when C326 was substituted for alanine (Supplementary Fig. 3F). Taken together, the SCF^FBXO22-NSD2 PWWP1 structure both confirms prior results and provides additional insight into the surfaces that contribute to a cooperative interaction between NSD2 and FBXO22 to promote potent NSD2 polyubiquitination and degradation.
The TR-FRET assay was adapted to assess cooperativity from the following workflows previously reported[39],[40]. Assays were performed in white, low-volume, flat-bottom, nonbinding 384-well microplates (Greiner, Catalog No. 784904) with a final assay volume of 10 μL per well. The assay buffer contained 20 mM Tris–HCl (pH 7.5) and 150mM NaCl, 0.05% Tween-20 (v/v), 2mM DTT, and 1% DMSO (v/v). LANCE Europium (Eu)-W8044 Streptavidin conjugate (2 nM) and LANCE Ultra ULight-anti6x-His labeled antibodies (10 nM) were used as donor and acceptor fluorophores associated with the tracer ligand and protein, respectively. Final assay concentrations of 63 nM His-tagged NSD2 PWWP1 and 31 nM of UNC7096 (a biotinylated version of the NSD2 ligand) as a tracer ligand were used for compound testing. UNC8732, UNC10088, and UNC10415667 were diluted in a 10-point, 3-fold serial dilution, and indicated compounds were pre-incubated with FBXO22 FIST for 30 min. A master mix of NSD2 PWWP1, UNC7096, and TR-FRET reagents was made prior to its addition to the compounds and/or FBXO22 FIST. The plates were sealed with metallic covers, mixed gently for 1 min, and incubated in the dark for 1 h. After 1 h, the plate was read on an EnVision 2103 plate reader with a 320 nm excitation filter and 615 nm/ 665 nm emission filters simultaneously with a dual mirror D400/D630 and a 100 μs delay. […] Raw TR-FRET signals were normalized to a high inhibition control (10 μM of UNC10088) and negative control (1% DMSO). The normalized TR-FRET signals were plotted against the compound concentrations. […] Ki values were calculated from the IC50s using the tight-binding model[41],[42]. The cooperativity factor (α) was calculated as the ratio of Ki (Binary)/ Ki (Ternary), with α > 1 indicating positive cooperativity between NSD2 PWWP1 and FBXO22 FIST based on its disruption of NSD2 binding to UNC7096.
For orientation: TR-FRET usually uses a lanthanide donor and a delayed reading to cut background.

In a further assay the test system is FBXO22 FIST domain. The assay is described as follows: Differential scanning fluorimetry (DSF). The class given is binding, human. The conditions noted are these: vs DMSO. The method, then: A total of 9.5 µL of the master mix containing FBXO22 FIST WT or variants, SYPRO Orange Dye (Invitrogen), and DSF buffer (20 mM Tris 7.5, 150 mM NaCl, and 1 mM TCEP) were added to a 384-well qPCR plate (Genesee Scientific). 0.5 µL of the compound in DMSO was added to achieve a final concentration of 15 µM of the protein and 15× SYPRO Orange. The DSF assay plate was covered and incubated on an orbital shaker at room temperature for 30 min. The DSF assay was performed using the ViiA 7 Real-Time PCR System (Applied Biosystems). The plate was heated from 25°C to 95°C with a rate of 0.033°C/second. The raw fluorescence value was analyzed using the Protein Thermal Shift Software (Applied Biosystems, v1.4) to obtain the Tm. The graph was generated using GraphPad Prism (v 10.4.1).
For orientation: In DSF a fluorescence change marks the thermal transition of the protein.

Assay [1] deals with T2, NSD2 (long and short forms) (Homo sapiens, UniProt O96028).
T2 sequence (O96028 211-350 limits assumed): T1 sequence (O96028 211-350)
Briefly: Western blot of NSD2 in HEK293T cells. In kind it is cell-based. The following applies: 10 µM, 6 hrs, vs DMSO. On the procedure:
HEK293T and U2OS were obtained from ATCC and cultured in high-glucose-containing Dulbecco’s Modified Eagle’s Medium (DMEM; Gibco; cat. #11995) supplemented with 10% fetal bovine serum (VWR) and 1% penicillin/streptomycin (Gibco). Cells were treated with either UNC10415667, UNC12149, UNC12567, hemin (Sigma; cat. #H9039), or DMSO control for the indicated times and analyzed by western blot using standard procedures. Briefly, cells were lysed on ice for 15 min in NETN lysis buffer (20 mM Tris pH 8.0, 100 mM NaCl, 0.5 mM EDTA, 0.5% NP40) supplemented with 10 µg/mL aprotinin, 10 µg/mL leupeptin, 10 µg/mL pepstatin A, 1 mM sodium orthovanadate, 1 mM sodium fluoride, and 1 mM AEBSF (4-[two aminoethyl] benzenesulfonyl fluoride). Cell lysates were centrifuged at 20,000×g in a benchtop microcentrifuge at 4 °C for 10 min. Protein concentration was determined by Bradford assay (Bio-Rad; cat. #5000006). Protein concentration was normalized using Laemmli buffer. Samples were heated for 5 min at 95°C in a dry water-bath. Samples were separated on TGX stain free gels (Bio-Rad) transferred to nitrocellulose membrane and blocked in 5% non-fat dry milk (Biorad; cat. #1706404) diluted in 1x TBS-T (137 mM NaCl, 2.7 mM KCl, 25 mM Tris pH 7.6, 1% Tween-20). Primary antibody incubations (Anti-NSD2 (Abcam; Cat# ab75359; Lot# 1093214-1; 1:1000 dilution), Anti-BACH1 (Fortis Life Sciences; Cat# A303-805A; Lot# 1; 1:1000 dilution), and Anti-GAPDH (Santa Cruz Biotechnology; Cat# sc-47724; Lot# C1023; 1:1000 dilution)) were performed overnight at 4 °C. Secondary antibodies (Peroxidase AffiniPure Goat Anti-Rabbit IgG (H + L) (Jackson Immuno; Cat# 111-035-003; 1:5000 dilution) and Peroxidase AffiniPure Goat Anti-Mouse IgG (H + L) (Jackson Immuno; Cat# 115-035-003; 1:5000 dilution)) were incubated for 1 h at room temperature. Blots were developed by chemiluminescence using Pierce ECL (Thermo Fisher Scientific; cat. #32106).
(In general: In western blotting, separated proteins are transferred to a membrane and probed.)

Where [2] appears, read: compound alone (buffer, no FBXO22 FIST), tracer UNC7096, read-out: IC50, competitive TR-FRET, binding to NSD2 PWWP1.

`O=C1COc2cc(C(=O)N(Cc3ccc(C(=O)Nc4ccc5c(c4)CCN(C(=O)CCCCC(O)S(=O)(=O)O)C5)cc3)C3CC3)ccc2N1` (stereo not shown) [UNC10088]: the IC50 at His-tagged NSD2 PWWP1 (FBXO22 FIST C326A variant present, read-out: IC50, competitive TR-FRET, in the presence of C326A FIST) turned out to be 227 ± 10 nM; at His-tagged NSD2 PWWP1 (FBXO22 FIST present, reagents not preincubated, read-out: IC50, competitive TR-FRET, in the presence of FBXO22 FIST without preincubation) it was 108 nM; on His-tagged NSD2 PWWP1 (WT FBXO22 FIST present, compound pre-incubated with FIST 30 min, read-out: IC50, competitive TR-FRET, in the presence of FBXO22 FIST) it was 101 ± 8 nM; at His-tagged NSD2 PWWP1 (setting [2]) it was 248 ± 22 nM. The “change in melting temperature (Tm) of WT FBXO22 FIST” value in the assay on FBXO22 FIST domain is reported as “stabilize WT FBXO22 FIST”. For the same molecule, the “NSD2 levels by immunoblot” value in assay [1] was “degradation of NSD2”.
Turning to `O=Cc1ccc(C(=O)N2CCc3cc(NC(=O)c4ccc(CN(C(=O)c5ccc6c(c5)OCC(=O)N6)C5CC5)cc4)ccc3C2)cc1` [UNC10415667], at His-tagged NSD2 PWWP1 (setting [2]), the IC50 was determined as 159 ± 24 nM. Moreover, in the assay on FBXO22 FIST domain (C326A variant), the “change in melting temperature (Tm) of FBXO22 FIST C326A” value was “negligible shift”. The “change in melting temperature (Tm) of WT FBXO22 FIST” value in the assay on FBXO22 FIST domain was “significant increase”. Besides, in assay [1], the “NSD2 levels by immunoblot” value is reported as “completely degraded”.

For the origin of these results see paper PMC13316043, “Structural basis of NSD2 degradation via targeted recruitment of SCF-FBXO22” (Nature Communications, 2026).
